Results on 32 compounds are retold here after BindingDB's records for doi:10.1021/jm00108a031 (Roche Research Center, 1991).

One test is described as follows: In vitro for platelet activating factor receptor antagonist activity in a binding assay using washed whole dog platelets.
What is called IC50 is the concentration needed to halve the response being measured. A higher IC50 goes with weaker potency. `Cc1nnc2n1-c1sc(CCc3ccc4c(c3)CCC4)cc1C(c1ccccc1Cl)=NC2` came in with a half-inhibitory concentration (IC50) of 20 nM.

The compound `Cc1nnc2n1-c1sc(CCc3ccc(CC(C)C)cc3)cc1C(c1ccccc1Cl)=NC2` registered an IC50 of 30 nM.

The compound `Cc1nnc2n1-c1sc(C#Cc3ccc4c(c3)CCC4)cc1C(c1ccccc1Cl)=NC2` showed an IC50 of 380 nM. Compound `Cc1nnc2n1-c1sc(-c3nn[nH]c3C(=O)N3CCOCC3)cc1C(c1ccccc1Cl)=NC2` showed a 50% inhibitory concentration (IC50) of 1000 nM.

Turning to `Cc1nnc2n1-c1sc(/C=C\c3ccc(CC(C)C)cc3)cc1C(c1ccccc1Cl)=NC2`, the half-maximal inhibitory concentration (IC50) turned out to be 80 nM. Consider `Cc1nnc2n1-c1sc(C#CCO)cc1C(c1ccccc1Cl)=NC2`, for which the IC50 was 180 nM. The same measure, in the same setting: the same measure for `Cc1nnc2n1-c1sc(-c3cc(=O)[nH][nH]3)cc1C(c1ccccc1Cl)=NC2`: 1000 nM. The same measure, in the same setting: the same measure for `Cc1nnc2n1-c1sc(/C=C\c3ccc4c(c3)CCC4)cc1C(c1ccccc1Cl)=NC2`: 110 nM; for `Cc1nnc2n1-c1sc(C#Cc3ccc(-c4ccccn4)s3)cc1C(c1ccccc1Cl)=NC2`: 60 nM. With `CCCCc1ccc(/C=C\c2cc3c(s2)-n2c(C)nnc2CN=C3c2ccccc2Cl)cc1`, the IC50 is 10 nM. Same read-out and setting: to `Cc1nnc2n1-c1sc(CCc3ccc4c(c3)CCO4)cc1C(c1ccccc1Cl)=NC2` belongs 20 nM; to `CCCCc1ccc(CCc2cc3c(s2)-n2c(C)nnc2CN=C3c2ccccc2Cl)cc1`, 10 nM; to `Cc1cc(C#Cc2cc3c(s2)-n2c(C)nnc2CN=C3c2ccccc2Cl)cc2c1OC(C)(C)C2`, 400 nM.

The compound `Cc1nnc2n1-c1sc(CCc3ccc(C4CCCCC4)cc3)cc1C(c1ccccc1Cl)=NC2` registered an IC50 of 35 nM.

`CCCCc1ccc(C#Cc2cc3c(s2)-n2c(C)nnc2CN=C3c2ccccc2Cl)cc1` gave an IC50 of 650 nM. Compound `Cc1nnc2n1-c1sc(CCc3ccc(-c4ccccn4)s3)cc1C(c1ccccc1Cl)=NC2` registered an IC50 of 8 nM. On the same count and under the same terms, to `Cc1cc(CCc2cc3c(s2)-n2c(C)nnc2CN=C3c2ccccc2Cl)cc2c1OC(C)(C)C2` belongs 400 nM; to `Cc1nnc2n1-c1sc(C#Cc3ccc(C4CCCCC4)cc3)cc1C(c1ccccc1Cl)=NC2`, 300 nM. For `C#Cc1cc2c(s1)-n1c(C)nnc1CN=C2c1ccccc1Cl`, the IC50 worked out at 10 nM.

`Cc1nnc2n1-c1sc(C#C[Si](C)(C)C)cc1C(c1ccccc1Cl)=NC2` yielded an IC50 of 20 nM. As for `Cc1nnc2n1-c1sc(CCc3ccc(-n4ccnc4)cc3)cc1C(c1ccccc1Cl)=NC2`, the IC50 came to 100 nM. In turn, `Cc1nnc2n1-c1sc(/C=C\c3ccc(C4CCCCC4)cc3)cc1C(c1ccccc1Cl)=NC2` showed a half-maximal inhibitory concentration (IC50) of 120 nM.

`Cc1nnc2n1-c1sc(/C=C\C(=O)N3CCOCC3)cc1C(c1ccccc1Cl)=NC2` came in with an IC50 of 180 nM. Compound `Cc1nnc2n1-c1sc(C(CC(=O)N3CCOCC3)N=N)cc1C(c1ccccc1Cl)=NC2` (configuration not stated) gave an IC50 of 420 nM. Regarding `Cc1nnc2n1-c1sc(C#Cc3ccccn3)cc1C(c1ccccc1Cl)=NC2`, the IC50 turned out to be 250 nM. `Cc1nnc2n1-c1sc(C#Cc3ccc4c(c3)CCO4)cc1C(c1ccccc1Cl)=NC2` had an IC50 of 420 nM. As to `Cc1nnc2n1-c1sc(Br)cc1C(c1ccccc1Cl)=NC2` [2-Bromo-4-(2-chloro-phenyl)-9-methyl-6H-1-thia-5,7,8,9a-tetraaza-cyclopenta[e]azulene], the concentration for half-maximal inhibition (IC50) is 300 nM.

The nature of another test: Compound tested in vitro for Platelet activating factor receptor antagonist activity in a binding assay using washed whole dog platelets.
Take `Cc1nnc2n1-c1sc(C#Cc3cccc4ccccc34)cc1C(c1ccccc1Cl)=NC2`: the IC50 was determined as 150 nM.

As for `Cc1nnc2n1-c1sc(/C=C\c3ccccn3)cc1C(c1ccccc1Cl)=NC2`, the half-inhibitory concentration (IC50) stood at 400 nM.

As for `Cc1nnc2n1-c1sc(C#CC(=O)N3CCOCC3)cc1C(c1ccccc1Cl)=NC2`, the IC50 worked out at 260 nM. On to `Cc1nnc2n1-c1sc(C#Cc3ccc(CC(C)C)cc3)cc1C(c1ccccc1Cl)=NC2`, for which the IC50 stood at 100 nM.

`Cc1nnc2n1-c1sc(C#Cc3ccccc3)cc1C(c1ccccc1Cl)=NC2` showed an IC50 of 100 nM.
